Data on two compounds can be found in patent US9873883B2, “Glyphosate resistant plants and associated methods” (Dow AgroSciences LLC, priority 2012, dated 2018).

Assay [1] has as its target Triticum aestivum (wheat) EPSP synthase DGT-7 v5, native (GENBANK EU977181), SEQ ID NO: 60 (Triticum aestivum, UniProt B5M6A1). As to the kind of experiment: In vitro kinetic assay (inorganic phosphate production, malachite green). The class given is biochemical. The source says:
(§1) FIG. 1 depicts a partial sequence alignment of DGT-14 (SEQ ID NO:46), DGT-11 (SEQ ID NO:47), DGT-12 (SEQ ID NO:49), DGT-18 (SEQ ID NO:50), DGT-29 (SEQ ID NO:53), and DGT-30 (SEQ ID NO:52) to other EPSP synthase enzymes, such as; grg-23 (SEQ ID NO:54; derived from U.S. Pat. No. 7,834,249), CP4 (SEQ ID NO:48; GENBANK ACC NO: AEM75108.1) from Agrobacterium tumefaciens, DGT-3 (SEQ ID NO:57; GENBANK ACC NO: P17688) from Brassica napus, DGT-1 (SEQ ID NO:56) from Glycine max, DGT-7 (SEQ ID NO:55; GENBANK ACC NO: EU977181) from Triticum aestivum, and aroA (SEQ ID NO:51; Padgette et al., (1991); Eschenburg et al., (2002); Priestman et al., (2005); Haghani et al., (2008) from Escherichia coli. All six DGT enzymes (DGT-14, DGT-11, DGT-12, DGT-18, DGT-30, and DGT-29) share a conserved alanine at the aroA EPSP synthase enzyme amino acid position 96. The location of this amino acid is indicated by an asterisk, and the amino acid residue is underlined.
(§2) The location of the amino acid residue which was mutated from glycine to alanine is indicated by the first asterisk. The location of the amino acid residue which was mutated from threonine to isoleucine is indicated by the second asterisk. The location of the third amino acid residue which was mutated from proline to serine is indicated by the third asterisk.
(§3) The following Class I enzymes: DGT-1 from Glycine max, DGT-3 from Brassica napus (GENBANK ACC NO: P17688), and DGT-7 from Triticum aestivum (GENBANK ACC NO: EU977181) were used as a comparison. The Class I EPSP synthase enzymes and mutant variants thereof were synthesized and evaluated. A mutation introduced into the plant EPSP synthase enzymes consisted of the Glycine to Alanine mutation made within the EPSP synthase enzyme at a similar location as that of the G96A mutation from the E. coli version of the enzyme. In addition, Threonine to Isoleucine and Proline to Serine mutations were introduced within these Class I EPSP synthase enzymes at analogous positions as that of amino acid 97 (T to I) and amino acid 101 (P to S) in the EPSP synthase of E. coli as described in Funke et al., (2009).
(§4) Additional constructs containing the dgt-1, dgt-3 and dgt-7 were synthesized. These constructs were used for in vitro testing of the dgt-1 v5, dgt-1 v6, dgt-1 v7, dgt-1 v8, dgt-3 v6, dgt-3 v7, dgt-3 v8, dgt-7 v5, dgt-7 v6, dgt-7 v7, and dgt-7 v8 gene sequences were outsourced to GeneArt for synthesis and cloning. The synthesized genes were cloned into the pET28 expression vector. […]

The target in assay [2] is Glycine max (soybean) EPSP synthase DGT-1 v5, native, SEQ ID NO: 59 (Glycine max, UniProt I1J7U9). The assay is described as above. The class given is biochemical.
From the text: as §1, §2, §3, §4

The test system of another assay is dgt-14 rice plants. As to the kind of experiment: Glyphosate tolerance of dgt-14 rice. Format: in vivo, Oryza sativa. The settings on record: sprayed. From the text:
Putatively transgenic rice plantlets at the 3-5 leaf stage are sprayed with a solution of glyphosate. Once sprayed, plantlets are allowed to dry for one hour before being moved out of the fume hood. Rating for sensitivity or resistance to glyphosate is completed from 10-14 days after treatment (DAT). Glyphosate resistant rice plantlets which contain a fully integrated copy of the dgt-14 plant are identified. Rice plants containing the dgt-14 transgene are obtained. The dgt-14 rice plants are sprayed with varying concentrations of glyphosate and shown to provide tolerance to glyphosate at concentrations up to 3360 g ae/ha.

Assay [3] relates to untransformed B104 maize line. The experiment in a line: Growth inhibition dosage response in maize callus culture. The class given is cell-based, Zea mays.
Assay [4] relates to Arabidopsis transformed with TraP5 v2::dgt-14 (pDAB105525). As to the kind of experiment: Postemergence glyphosate tolerance, visual injury. The class given is in vivo, Arabidopsis thaliana. The settings on record: 2 weeks after application.

Molecules are shown by their SMILES.

Chain of Glycine max (soybean) EPSP synthase DGT-1 v5, native, SEQ ID NO: 59 (I1J7U9 entry or part of it): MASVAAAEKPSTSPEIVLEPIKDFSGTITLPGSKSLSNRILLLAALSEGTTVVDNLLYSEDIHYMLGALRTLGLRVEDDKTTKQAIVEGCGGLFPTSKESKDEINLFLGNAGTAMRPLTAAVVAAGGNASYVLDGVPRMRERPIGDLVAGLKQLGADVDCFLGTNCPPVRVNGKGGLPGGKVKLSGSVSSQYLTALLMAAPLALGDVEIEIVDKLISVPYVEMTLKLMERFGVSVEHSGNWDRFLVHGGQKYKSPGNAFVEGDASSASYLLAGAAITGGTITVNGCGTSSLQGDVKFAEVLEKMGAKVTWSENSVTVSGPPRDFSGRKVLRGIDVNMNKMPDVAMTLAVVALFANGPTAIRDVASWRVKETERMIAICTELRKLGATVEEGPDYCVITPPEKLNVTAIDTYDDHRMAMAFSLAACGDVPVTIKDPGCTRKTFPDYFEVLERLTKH
Chain of Triticum aestivum (wheat) EPSP synthase DGT-7 v5, native (GENBANK EU977181), SEQ ID NO: 60 (B5M6A1 entry or part of it): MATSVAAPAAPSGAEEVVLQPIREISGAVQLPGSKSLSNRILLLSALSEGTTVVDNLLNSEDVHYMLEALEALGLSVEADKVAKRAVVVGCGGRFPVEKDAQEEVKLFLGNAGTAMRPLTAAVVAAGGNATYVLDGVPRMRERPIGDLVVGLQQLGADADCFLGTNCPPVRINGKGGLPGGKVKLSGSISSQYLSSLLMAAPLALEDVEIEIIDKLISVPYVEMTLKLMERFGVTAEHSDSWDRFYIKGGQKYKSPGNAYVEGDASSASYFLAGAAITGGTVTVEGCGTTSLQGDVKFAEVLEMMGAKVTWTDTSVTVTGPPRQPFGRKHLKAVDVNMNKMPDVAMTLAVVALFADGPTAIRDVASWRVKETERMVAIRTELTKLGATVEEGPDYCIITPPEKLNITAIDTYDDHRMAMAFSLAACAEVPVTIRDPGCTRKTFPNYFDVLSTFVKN

Take `C=C(OP(=O)(O)O)C(=O)O` [PEP, phosphoenolpyruvate]: the kcat/Km (usually the second-order rate constant that governs catalysis at low substrate concentration) in assay [1] (PEP, pH 7.5, 1 mM S3P) was 215000 M⁻¹ s⁻¹; in assay [2] (PEP, pH 7.5, 1 mM S3P), 74100 M⁻¹ s⁻¹.

In the case of `O=C(O)CNCP(=O)(O)O` [glyphosate, N-(phosphonomethyl)glycine], the IC50 in assay [1] and in assay [2] was around 20 µM throughout. For the same compound, the “tolerance to glyphosate at concentrations up to” value in the assay with dgt-14 rice plants was “up to 3360 g ae/ha”. In addition, the “glyphosate concentrations sufficient to inhibit cell growth” value in assay [3] is at least 0.25 mM. Besides, the “Visual % injury (Ave)” value in assay [4] (T2, 840 g ae/ha) is on record as 90.0%; in assay [4] (T3, 840 g ae/ha), 97.5%.
